Source: patent US20060160824A1, “Indole derivatives as serotonin reuptake inhibitors” (priority 2003, published 2006)

Experiments:
5-HT1A receptor = molecular target: T1, 5-HT1A receptor (Rattus norvegicus, UniProt P19327); experiment: 5-HT1A receptor binding test
T1 construct: from tissue
T1 sequence (P19327 1-422): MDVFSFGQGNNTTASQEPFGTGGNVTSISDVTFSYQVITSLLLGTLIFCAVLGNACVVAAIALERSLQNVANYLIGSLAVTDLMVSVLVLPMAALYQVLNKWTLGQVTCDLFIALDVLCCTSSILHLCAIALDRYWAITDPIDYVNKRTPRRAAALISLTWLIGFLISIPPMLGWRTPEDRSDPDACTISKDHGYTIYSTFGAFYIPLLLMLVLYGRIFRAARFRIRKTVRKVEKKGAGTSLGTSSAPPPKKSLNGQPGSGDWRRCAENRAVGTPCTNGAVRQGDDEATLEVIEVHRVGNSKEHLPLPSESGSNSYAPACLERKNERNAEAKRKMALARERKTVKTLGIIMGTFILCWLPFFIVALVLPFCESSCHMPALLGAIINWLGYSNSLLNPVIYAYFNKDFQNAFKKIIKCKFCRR
Source text: In particular, they inhibit 5-HT reuptake. […] Due to a 5-HT-agonistic action and 5-HT reuptake inhibition, serotonin remains in the synaptic cleft for longer and the serotonin action is reinforced. Active ingredients having such properties are therefore particularly suitable as antidepressants and anxiolytics. The compounds of the formula I inhibit the binding of tritiated serotonin ligands to hippocampal receptors (Cossery et al., European J. Pharmacol. 140 (1987), 143-155) and synaptosomal serotonin reuptake (Sherman et al., Life Sci. 23 (1978), 1863-1870).
The 5-HT1A-agonistic action can be measured in vitro, for example, with the aid of the (serotonin) binding test, as described by Matzen et al. (J. Med. Chem., 43 (2000), 1149-57), in particular on page 1156 with reference to Eur. J. Pharmacol., 140 (1987), 143-155. In addition, the 5-HT1A-agonistic action can be measured with the aid of the GTPgammaS test described by Newman-Tancredi et al. (Eur. J. Pharmacol. 307 (1996), 107-11).

5-HT4 receptor = 5-HT4 receptor (Homo sapiens, UniProt Q13639); experiment: 5-HT4 receptor binding test
Sequence of 5-HT4 receptor (Q13639 whole entry): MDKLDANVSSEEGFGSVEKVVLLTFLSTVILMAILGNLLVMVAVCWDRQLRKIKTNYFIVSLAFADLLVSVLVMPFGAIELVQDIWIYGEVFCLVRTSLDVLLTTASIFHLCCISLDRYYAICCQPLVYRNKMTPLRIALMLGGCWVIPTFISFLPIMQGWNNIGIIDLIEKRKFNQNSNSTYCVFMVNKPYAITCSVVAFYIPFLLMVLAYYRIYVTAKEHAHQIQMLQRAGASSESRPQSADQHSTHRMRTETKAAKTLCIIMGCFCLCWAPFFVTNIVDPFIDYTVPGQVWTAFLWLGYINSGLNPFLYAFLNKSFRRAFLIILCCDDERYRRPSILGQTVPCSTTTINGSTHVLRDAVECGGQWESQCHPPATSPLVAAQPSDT

An IC50 (5-HT1A receptor) of 96 nM and an IC50 (5-HT4 receptor) of 21 nM were found for `Cn1cc(CCCCN2CCN(c3ccc4oc(C(N)=O)cc4c3)CC2)c2cc(C#N)ccc21` [Example 1, 5-{4-[4-(5-cyano-1-methyl-1H-indol-3-yl)butyl]piperazin-1-yl}-benzofuran-2-carboxamide] in this work.
